Read-outs that look alike come from different tables or passages of the source.
How the values were obtained:
[1] = target: T1, rat α1β2γ2 GABAA Receptor (Rattus norvegicus, UniProt P18508+P62813+P63138, INS375LLRMFSFK); test: Xenopus oocyte two-electrode voltage-clamp electrophysiology; assay type: cell-based; conditions: for Oocyte electrophysiology, ratio of currents in presence/absence of compound, 0.1 μM: 0.1 μM compound co-applied with 2 μM GABA; for Oocyte electrophysiology, ratio of currents in presence/absence of compound, 0.1 μM / Oocyte electrophysiology, ratio of currents in presence/absence of compound, 1 μM / Oocyte electrophysiology, ratio of currents in presence/absence of compound, 10 μM: −70 mV; for Oocyte electrophysiology, ratio of currents in presence/absence of compound, 1 μM: 1 μM compound co-applied with 2 μM GABA; for Oocyte electrophysiology, ratio of currents in presence/absence of compound, 10 μM: 10 μM compound co-applied with 2 μM GABA; for Gating (10 μM), ratio of compound only current/2 μM GABA current: direct current gated by 10 μM compound in the absence of GABA
T1 construct: from linearized pBluescript vectors containing receptor coding regions; expressed in transfected cells; host or cells: Xenopus laevis oocytes injected with in vitro transcribed capped mRNA
Experimental: Stage V-VI oocytes were harvested from sexually mature female Xenopus laevis (Xenopus One, Northland, Mich.) under 0.1% tricaine (3-aminobenzoic acid ethyl ester) anesthesia. Oocytes were defolliculated by shaking for 20 min at 37° C. in collagenase (2 mg/ml) dissolved in calcium-free solution containing (in mM): 96 NaCl, 2 KCl, 1 MgCl2, and 5 HEPES at pH 7.4. Capped mRNA, encoding rat GABAA receptor α1, β2 and γ2L subunits was transcribed in vitro using the mMESSAGE mMachine Kit (Ambion, Austin, Tex.) from linearized pBluescript vectors containing receptor coding regions. Subunit transcripts were injected in equal parts (20-40 ng total RNA) 8-24 hours following defolliculation. Oocytes were incubated up to 5 days at 18° C. in ND96 medium containing (in mM): 96 NaCl, 1 KCl, 1 MgCl2, 2 CaCl2 and 5 HEPES at pH 7.4, supplemented with pyruvate (5 mM), penicillin (100 U/ml), streptomycin (100 μg/ml) and gentamycin (50 μg/ml). The cDNAs for the rat GABAA-receptor subunits were originally provided by A. Tobin, University of California, Los Angels (α1), P. Malherbe, Hoffman-La Roche, Switzerland (β2), C. Fraser, National Institute on Alcohol Abuse and Alcoholism (γ2L).
Two-electrode voltage-clamp experiments were performed with a Warner OC725 amplifier 2-5 days following RNA injection. The extracellular recording solution was ND96 medium with no supplements. Intracellular recording pipettes were filled with 3 M KCl and had open tip resistances of ˜1 MΩ. Drugs were applied from a common tip via a gravity-driven multibarrel drug-delivery system. Steroids were simultaneously co-applied with GABA. Cells were clamped at −70 mV for all experiments, and peak current during 20 s drug applications was measured. Data acquisition and analysis were performed with pCLAMP software (Axon Instruments, California). Statistical differences were determined using a two-tailed Student's t-test.
The GABA concentration used for the control response was 2 μM. Each compound was evaluated on at least four different oocytes at the concentrations indicated, and the results reported are the ratio of the currents measured in the presence/absence of added compound. (G) represents direct current gated by 10 μM compound in the absence of GABA, and this current is reported as the ratio of compound only current/2 μM GABA current. Error limits are calculated as standard error of the means.

[2] = target: GABAA receptor ([35S]-TBPS binding site, rat brain cortical membranes); test: Displacement of [35S]-TBPS binding, rat brain cortical membranes; conditions: 5 μM GABA, 2 nM [35S]-TBPS; ± standard error of the means
Experimental: Rat brain cortical membranes were prepared with minor modifications of the method previously reported. (Hawkinson, J. E., et al., Correlation of Neuroactive Steroid Modulation of [^35S]t-Butylbicyclophosophorothionate and [^3H]Flunitrazepam Binding and γ-Aminobutyric AcidA Receptor Function, Mol. Pharmacol., 1994, 46, 977-985). Briefly, frozen rat cerebral cortices (Pel-freez, Rogers, Ak.) were thawed and homogenized in 10 volumes of ice-cold 0.32 M sucrose using a glass/Teflon pestle. The homogenate was centrifuged at 1500×g for 10 min at 4° C. The resultant supernatant was centrifuged at 10,000×g for 30 min at 4° C. The pellet (P2) from this centrifugation was resuspended in 200 mM NaCl, 50 mM potassium phosphate buffer, pH 7.4, and centrifuged at 10,000×g for 20 min at 4° C. This washing procedure was done a total of three times, and then pellets were resuspended in buffer (˜4 mL/brain) using a glass/Teflon pestle. The membrane suspension was aliquoted, frozen in liquid nitrogen, and stored at −80° C. prior to use.
[^35S]-TBPS Binding assays were done according to the procedure described previously (Hawkinson, J. E., et al., Correlation of Neuroactive Steroid Modulation of [^35S]t-Butylbicyclophosophorothionate and [^3H]Flunitrazepam Binding and γ-Aminobutyric AcidA Receptor Function, Mol. Pharmacol., 1994, 46, 977-985) with modifications. Briefly, aliquots of membrane solution (0.5 mg/mL final protein concentration in assay) were incubated with 5 μM GABA, 2 nM [^35S]-TBPS (45-120 Ci/mmol), and 5 μL aliquots of steroid in DMSO solution (final assay concentrations ranged from 1 nM to 10 μM), and brought to a final volume of 1 mL with 200 mM NaCl, 50 mM potassium phosphate buffer, pH 7.4. […] Assay tubes were incubated for 2 hr at room temperature. A Brandel (Gaithersburg, Md.) cell harvester was used for filtration of the assay tubes through Whatman/GF/C glass filter paper. Filter paper was rinsed with 4 mL of ice-cold buffer three times. Radioactivity bound to the filters was read by liquid scintillation counter and data was fit using Sigma Plot version 3.0 to the Hill equation i. f=Rmax/{1+([conc]/IC50)^n}
Where Rmax is the maximal effect, [conc] is steroid concentration, IC50 is the half-maximal inhibitor concentration and n is the Hill coefficient. Each data point was determined in triplicate and 2-3 full concentration-response curves were generated for each steroid.

[3] = tested on: Xenopus laevis tadpoles; test: Tadpole loss of righting (LRR) and swimming (LSR) reflexes; assay type: in vivo; conditions: 3 h equilibration at room temperature; for EC50: read-out: LSR EC50 (loss of swimming response)
Experimental: Tadpole LRR was measured as described previously. (See, Wittmer, L. L., et al., Enantioselectivity of steroid-induced γ-aminobutyric acidA receptor modulation and anesthesia, Mol. Phar., 1996, 50:1581-1586). Briefly, groups of 10 early prelimb-bud stage Xenopus laevis tadpoles (Nasco, Fort Atkinson, Wis.) were placed in 100 mL of oxygenated Ringer's stock solution containing various concentrations of compound. Compounds were added from a 10 mM DMSO stock (final concentration of DMSO in test solutions ≦0.1%). After equilibrating at room temperature for 3 h, tadpoles were evaluated using the LRR and LSR behavioral endpoints. LRR was defined as failure of the tadpole to right itself within 5 sec after being flipped by a smooth glass rod. LSR was defined as failure of the tadpole to swim when touched by a smooth glass rod. In general, the tadpoles regained their righting and swimming reflexes when placed in fresh oxygenated Ringer's solution. Control beakers containing up to 0.6% DMSO produced no LRR or LSR in tadpoles.
Tadpole LRR and LSR concentration-response curves were fit using Sigma Plot version 3.0 to the Hill equation f=Rmax/{1+([conc]/EC50)^n}
where Rmax is the maximum effect, [conc] is the steroid concentration, EC50 is the half-maximal effective concentration, and n is the Hill coefficient.

T1 sequence (P62813 28-455, stated change not applied): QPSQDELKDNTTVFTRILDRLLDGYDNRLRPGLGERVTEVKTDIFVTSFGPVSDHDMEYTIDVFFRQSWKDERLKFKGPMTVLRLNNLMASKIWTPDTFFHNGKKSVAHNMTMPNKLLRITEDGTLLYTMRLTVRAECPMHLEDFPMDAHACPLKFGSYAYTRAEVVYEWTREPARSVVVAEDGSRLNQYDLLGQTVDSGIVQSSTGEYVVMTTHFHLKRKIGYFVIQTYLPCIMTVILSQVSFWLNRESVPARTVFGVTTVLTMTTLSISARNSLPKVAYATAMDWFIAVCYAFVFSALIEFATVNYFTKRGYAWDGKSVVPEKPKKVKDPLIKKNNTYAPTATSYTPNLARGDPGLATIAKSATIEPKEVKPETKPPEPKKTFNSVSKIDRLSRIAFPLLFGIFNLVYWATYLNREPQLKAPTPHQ
T1 sequence (P63138 26-474, stated change not applied): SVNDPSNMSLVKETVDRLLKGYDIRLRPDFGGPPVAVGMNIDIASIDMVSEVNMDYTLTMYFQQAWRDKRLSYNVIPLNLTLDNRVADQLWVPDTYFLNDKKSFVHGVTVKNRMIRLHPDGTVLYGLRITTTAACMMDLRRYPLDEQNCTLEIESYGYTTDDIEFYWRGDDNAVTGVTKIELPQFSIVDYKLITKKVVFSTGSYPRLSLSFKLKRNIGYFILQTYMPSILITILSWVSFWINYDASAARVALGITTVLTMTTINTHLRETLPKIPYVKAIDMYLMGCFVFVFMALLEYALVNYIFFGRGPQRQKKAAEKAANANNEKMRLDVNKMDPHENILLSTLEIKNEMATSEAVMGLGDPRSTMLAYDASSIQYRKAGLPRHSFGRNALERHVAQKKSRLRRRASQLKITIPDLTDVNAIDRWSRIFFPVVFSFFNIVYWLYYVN
T1 sequence (P18508 with tags, fused parts or gaps INS375LLRMFSFK): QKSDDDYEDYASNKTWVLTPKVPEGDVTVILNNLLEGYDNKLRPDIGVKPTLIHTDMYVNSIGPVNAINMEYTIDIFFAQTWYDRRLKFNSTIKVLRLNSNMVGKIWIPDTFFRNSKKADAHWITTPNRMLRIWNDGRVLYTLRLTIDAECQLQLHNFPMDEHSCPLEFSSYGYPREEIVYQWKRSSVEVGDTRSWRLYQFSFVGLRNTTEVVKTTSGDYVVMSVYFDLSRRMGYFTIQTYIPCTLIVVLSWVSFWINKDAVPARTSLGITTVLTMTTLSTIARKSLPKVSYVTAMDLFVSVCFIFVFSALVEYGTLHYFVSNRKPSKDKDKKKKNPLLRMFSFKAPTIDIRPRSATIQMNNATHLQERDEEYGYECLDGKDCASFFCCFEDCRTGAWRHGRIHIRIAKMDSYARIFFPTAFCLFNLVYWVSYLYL

Structure (SMILES)	Oocyte electrophysiology, ratio of currents in presence/absence of compound, 0.1 μM [1]	Oocyte electrophysiology, ratio of currents in presence/absence of compound, 1 μM [1]	Oocyte electrophysiology, ratio of currents in presence/absence of compound, 10 μM [1]	Gating (10 μM), ratio of compound only current/2 μM GABA current [1]	IC50 [2] [nM]	melting point [°C]	LRR ED50 (loss of righting response) [3] [nM]	EC50 ([3]; Xenopus laevis, 3 h) [nM]	EC50 [3] [nM]	LSR EC50 (loss of swimming response) [3]
C[C@]12CC[C@@H](O)C[C@H]1CCC1C3CCC4CCC(=O)C[C@@]43CCC12 (stereo partly drawn) [Compound 4b, (3α,5β)-3-Hydroxy-13,24-cyclo-18,21-dinorcholan-23-one]	0.97 ± 0.03	1.03 ± 0.08	3.17 ± 0.42	0.01 ± 0.01	899 ± 150	197 to 198	1440 ± 20	3550 ± 1150		
CC12CCC(O)CC1CCC1C2CCC23C(=O)CCCC2CCC13 (stereo not drawn) [Compound 5a, (3α,5α)-3-Hydroxy-13,24-cyclo-18,21-dinorcholan-24-one]	1.22 ± 0.23	3.05 ± 0.79	10.73 ± 1.87	0.39 ± 0.69	301 ± 20	203 to 204	320 ± 20		1730 ± 30	
CC12CCC(O)CC1CCC1C2CCC23C(=O)CCCC2CCC13 (stereo not drawn) [Compound 5b, (3α,5β)-3-Hydroxy-13,24-cyclo-18,21-dinorcholan-24-one]	1.26 ± 0.05	3.45 ± 0.29	10.42 ± 1.65	0.04 ± 0.02	329 ± 35	177 to 178	400 ± 120	890		
CC12CCC(O)CC1CCC1C2CCC23CC=CC(=O)C2CCC13 (stereo not drawn) [Compound 11a, (3α,5α)-3-Hydroxy-13,24-cyclo-18,21-dinorchol-22-en-20-one]	1.49 ± 0.20	5.87 ± 1.52	9.07 ± 1.86	0.72 ± 0.03	373 ± 20	230 to 232	3380 ± 670			None @ 10
CC12CCC(O)CC1CCC1C2CCC23CC=CC(=O)C2CCC13 (stereo not drawn) [Compound 11b, (3α, 5β)-3-Hydroxy-13,24-cyclo-18,21-dinorchol-22-en-20-one]	1.07 ± 0.17	1.17 ± 0.11	2.34 ± 0.37	0.11 ± 0.04	1570	253 to 254	2560 ± 1390	8950 ± 10		
CC12CCC(O)CC1CCC1C2CCC23CCC=CC2CCC13 (stereo not drawn) [Compound 13a, (3α,5α)-13,24-Cyclo-18,21-dinorchol-20(22)-en-3-ol]	1.53 ± 0.45	2.12 ± 0.40	2.68 ± 0.42	−0.32 ± 0.15	569 ± 28	169 to 170	>10000			None @ 10
CC12CCC(O)CC1CCC1C2CCC23CCC=CC2CCC13 (stereo not drawn) [Compound 13b, (3α,5β)-13,24-Cyclo-18,21-dinorchol-20(22)-en-3-ol]	1.44 ± 0.17	2.09 ± 0.35	3.48 ± 1.01	−0.05 ± 0.09	484 ± 103	168 to 169	1280 ± 1800	> 10000		
CC12CCC(O)CC1CCC1C2CCC23CC4OC4C(=O)C2CCC13 [Compound 19a, (3α,5α,22S,23S)-22,23-Epoxy-3-hydroxy-13,24-cyclo-18,21-dinorcholan-20-one]	1.47 ± 0.17	1.92 ± 0.23	8.90 ± 2.10	0.23 ± 0.24	370 ± 42	238 to 240	1750 ± 460	10000		
CC12CCC(O)CC1CCC1C2CCC23CC4OC4C(=O)C2CCC13 [Compound 19b, (3α,5α,22R,23R)-22,23-Epoxy-3-hydroxy-13,24-cyclo-18,21-dinorcholan-20-one]	1.13 ± 0.02	2.11 ± 0.26	5.47 ± 0.62	0.21 ± 0.02	313 ± 18	194 to 195	960 ± 290		10000	
